According to the supplement of paper PMC10307832:

Tests used:
Test in all cases: relative viability (nuclei count vs DMSO), 5 days (fraction); higher = more cells survive
Ibrutinib + Tozasertib = compound: C=CC(=O)N1CCC[C@@H](n2nc(-c3ccc(Oc4ccccc4)cc3)c3c(N)ncnc32)C1 [Ibrutinib] + Cc1cc(Nc2cc(N3CCN(C)CC3)nc(Sc3ccc(NC(=O)C4CC4)cc3)n2)n[nH]1 [Tozasertib] (partner 0.1 µM)
How it was run: (§1)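 One day after seeding in 1536-well plates, lung cancer cell lines were dosed by pin tool. Dosing was either single-drug or a fixed anchor-drug dose plus five library-drug doses (not always all listed) in √10 steps. After 5 days, nuclei were stained in one fix-and-stain step and counted on 4× images, and relative viability is the nuclei count of treated wells over that of vehicle wells, given as the median of duplicate plates.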

BMX-IN-1 + Phenformin = compound: C=CC(=O)Nc1cc(-n2c(=O)ccc3cnc4ccc(-c5ccc(NS(C)(=O)=O)cc5)cc4c32)ccc1C [BMX-IN-1] + N=C(N)NC(=N)NCCc1ccccc1 [Phenformin] (partner 250 µM)
How it was run: as §1

BMX-IN-1 + Pemetrexed = compound: C=CC(=O)Nc1cc(-n2c(=O)ccc3cnc4ccc(-c5ccc(NS(C)(=O)=O)cc5)cc4c32)ccc1C [BMX-IN-1] + Nc1nc2[nH]cc(CCc3ccc(C(=O)N[C@@H](CCC(=O)O)C(=O)O)cc3)c2c(=O)[nH]1 [Pemetrexed] (partner 0.2 µM)
How it was run: as §1

PAC-1 + Pemetrexed = compound: C=CCc1cccc(/C=N/NC(=O)CN2CCN(Cc3ccccc3)CC2)c1O [PAC-1] + Nc1nc2[nH]cc(CCc3ccc(C(=O)N[C@@H](CCC(=O)O)C(=O)O)cc3)c2c(=O)[nH]1 [Pemetrexed] (partner 0.2 µM)
How it was run: as §1

| Cell Line | relative viability (Ibrutinib + Tozasertib; first compound 0.005 µM) | relative viability (Ibrutinib + Tozasertib; first compound 0.01581 µM) | relative viability (Ibrutinib + Tozasertib; first compound 0.05 µM) | relative viability (Ibrutinib + Tozasertib; first compound 0.1581 µM) | relative viability (Ibrutinib + Tozasertib; first compound 0.5 µM) | relative viability (BMX-IN-1 + Phenformin; first compound 0.02 µM) | relative viability (BMX-IN-1 + Phenformin; first compound 0.2 µM) | relative viability (BMX-IN-1 + Phenformin; first compound 0.6325 µM) | relative viability (BMX-IN-1 + Phenformin; first compound 2 µM) | relative viability (BMX-IN-1 + Pemetrexed; first compound 0.02 µM) | relative viability (BMX-IN-1 + Pemetrexed; first compound 0.2 µM) | relative viability (BMX-IN-1 + Pemetrexed; first compound 0.6325 µM) | relative viability (BMX-IN-1 + Pemetrexed; first compound 2 µM) | relative viability (PAC-1 + Pemetrexed; first compound 0.02 µM) | relative viability (PAC-1 + Pemetrexed; first compound 0.06325 µM) | relative viability (PAC-1 + Pemetrexed; first compound 0.2 µM) | relative viability (PAC-1 + Pemetrexed; first compound 2 µM) |
| --- | --- | --- | --- | --- | --- | --- | --- | --- | --- | --- | --- | --- | --- | --- | --- | --- | --- |
| NCI-H650 | 0.783 | 0.672 | 0.758 | 0.808 | 0.782 | 0.46 | 0.505 | 0.452 | 0.455 | 0.926 | 0.961 | 0.956 | 0.919 | 0.893 | 0.931 | 0.968 | 1.03 |
| NCI-H460 | 0.716 | 0.321 | 0.519 | 0.409 | 0.494 | 0.917 | 0.576 | 0.677 | 0.609 | 0.0558 | 0.0711 | 0.0676 | 0.071 | 0.0683 | 0.0604 | 0.0685 | 0.0667 |
| NCI-H1666 | 0.628 | 0.59 | 0.602 | 0.583 | 0.536 | 0.572 | 0.581 | 0.597 | 0.607 | 0.908 | 0.881 | 0.877 | 0.867 | 0.643 | 0.889 | 0.849 | 0.799 |
| LK-2 | – | 0.165 | 0.185 | 0.168 | 0.157 | 0.487 | 0.505 | 0.473 | 0.548 | 0.163 | 0.256 | 0.254 | 0.225 | 0.238 | 0.244 | 0.246 | 0.321 |
| NCI-H2009 | 0.737 | 0.778 | 0.77 | 0.788 | 0.831 | 0.47 | 0.549 | 0.531 | 0.485 | 1.08 | 1.06 | 1.09 | 1.07 | 1.03 | 0.989 | 1.1 | 0.989 |
| COR-L 105 | 0.35 | 0.337 | 0.339 | 0.373 | 0.303 | 0.486 | 0.458 | 0.49 | 0.574 | 1.2 | 1.07 | 1.3 | 1.04 | 0.983 | 1.1 | 1.04 | 1.05 |
| LXF-289 | 0.22 | 0.192 | 0.164 | 0.248 | 0.197 | 0.481 | 0.521 | 0.538 | 0.536 | 0.896 | 0.947 | 1.01 | 0.985 | 0.857 | 0.859 | 0.873 | 0.916 |
| HARA | 0.0994 | 0.117 | 0.0863 | 0.0992 | 0.096 | 0.413 | 0.619 | 0.489 | 0.409 | 0.257 | 0.271 | 0.282 | 0.255 | 0.23 | 0.234 | 0.264 | 0.239 |
| NCI-H1975 | 0.82 | 0.688 | 0.695 | 0.806 | 0.403 | 0.404 | 0.428 | 0.453 | 0.416 | 0.321 | 0.312 | 0.29 | 0.279 | 0.295 | 0.279 | 0.306 | 0.289 |
